Measurements taken from ChEMBL document CHEMBL5465560, “Selectivity Literature for EUbOPEN Chemogenomic Library” (2024).

Key:
[1] = target: TRAF2 and NCK-interacting protein kinase (Homo sapiens) (UniProt Q9UKE5); assay: Selectivity interaction (KinomeScan (DiscoverX)) EUB0000229b TNIK; settings: at 10 µM
Misshapen-like kinase 1 = Misshapen-like kinase 1 (Homo sapiens, UniProt Q8N4C8); assay: Selectivity interaction (KinomeScan (DiscoverX)) EUB0000595a MINK1; settings: at 10 µM
[2] = target: Mitogen-activated protein kinase 9 (Homo sapiens, UniProt P45984); assay: Selectivity interaction (KinomeScan (DiscoverX)) EUB0000695a MAPK9; settings: at 100 nM
Sequence of Mitogen-activated protein kinase 9 (P45984 whole entry, looked up): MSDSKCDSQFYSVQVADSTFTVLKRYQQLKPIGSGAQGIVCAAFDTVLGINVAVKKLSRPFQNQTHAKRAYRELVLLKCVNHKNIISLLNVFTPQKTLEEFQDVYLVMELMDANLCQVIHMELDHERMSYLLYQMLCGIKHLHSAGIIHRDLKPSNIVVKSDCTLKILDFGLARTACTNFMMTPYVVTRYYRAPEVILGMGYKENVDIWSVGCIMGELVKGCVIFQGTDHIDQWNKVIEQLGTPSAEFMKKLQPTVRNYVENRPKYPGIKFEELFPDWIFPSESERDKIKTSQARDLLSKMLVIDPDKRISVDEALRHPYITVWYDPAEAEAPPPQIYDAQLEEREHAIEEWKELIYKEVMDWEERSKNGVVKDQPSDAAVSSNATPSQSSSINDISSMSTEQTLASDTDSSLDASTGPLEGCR

[3] = target: Cyclin-dependent kinase 11B (Homo sapiens) (UniProt P21127); settings: at 10 µM
Sequence of Cyclin-dependent kinase 11B (Homo sapiens) (P21127 whole entry): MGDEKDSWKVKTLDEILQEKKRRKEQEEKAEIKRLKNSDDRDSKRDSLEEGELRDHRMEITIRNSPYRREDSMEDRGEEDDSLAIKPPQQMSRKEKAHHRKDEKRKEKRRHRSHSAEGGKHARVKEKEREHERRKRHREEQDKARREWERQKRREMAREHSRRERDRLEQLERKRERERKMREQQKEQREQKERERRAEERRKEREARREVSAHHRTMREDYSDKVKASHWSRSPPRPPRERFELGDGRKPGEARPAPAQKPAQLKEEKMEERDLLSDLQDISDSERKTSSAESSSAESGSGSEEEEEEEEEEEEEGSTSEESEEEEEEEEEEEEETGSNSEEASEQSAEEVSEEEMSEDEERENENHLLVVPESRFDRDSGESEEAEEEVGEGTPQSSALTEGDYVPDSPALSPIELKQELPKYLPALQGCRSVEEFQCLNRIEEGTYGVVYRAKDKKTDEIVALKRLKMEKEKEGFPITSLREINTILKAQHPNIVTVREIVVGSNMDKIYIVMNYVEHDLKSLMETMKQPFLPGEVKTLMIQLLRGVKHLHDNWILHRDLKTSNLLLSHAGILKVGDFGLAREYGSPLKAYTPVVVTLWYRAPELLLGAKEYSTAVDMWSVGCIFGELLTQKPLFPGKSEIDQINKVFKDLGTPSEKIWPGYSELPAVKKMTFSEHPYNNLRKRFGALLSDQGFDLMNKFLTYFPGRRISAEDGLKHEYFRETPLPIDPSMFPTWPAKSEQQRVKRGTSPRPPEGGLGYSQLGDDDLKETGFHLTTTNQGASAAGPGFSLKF

[4] = target: Tyrosine-protein kinase Fer (Homo sapiens) (UniProt P16591); assay: Selectivity interaction (KinaseProfiler screening (Millipore)) EUB0000601a FER; settings: at 3 µM
Sequence of Tyrosine-protein kinase Fer (Homo sapiens) (P16591 whole entry, looked up): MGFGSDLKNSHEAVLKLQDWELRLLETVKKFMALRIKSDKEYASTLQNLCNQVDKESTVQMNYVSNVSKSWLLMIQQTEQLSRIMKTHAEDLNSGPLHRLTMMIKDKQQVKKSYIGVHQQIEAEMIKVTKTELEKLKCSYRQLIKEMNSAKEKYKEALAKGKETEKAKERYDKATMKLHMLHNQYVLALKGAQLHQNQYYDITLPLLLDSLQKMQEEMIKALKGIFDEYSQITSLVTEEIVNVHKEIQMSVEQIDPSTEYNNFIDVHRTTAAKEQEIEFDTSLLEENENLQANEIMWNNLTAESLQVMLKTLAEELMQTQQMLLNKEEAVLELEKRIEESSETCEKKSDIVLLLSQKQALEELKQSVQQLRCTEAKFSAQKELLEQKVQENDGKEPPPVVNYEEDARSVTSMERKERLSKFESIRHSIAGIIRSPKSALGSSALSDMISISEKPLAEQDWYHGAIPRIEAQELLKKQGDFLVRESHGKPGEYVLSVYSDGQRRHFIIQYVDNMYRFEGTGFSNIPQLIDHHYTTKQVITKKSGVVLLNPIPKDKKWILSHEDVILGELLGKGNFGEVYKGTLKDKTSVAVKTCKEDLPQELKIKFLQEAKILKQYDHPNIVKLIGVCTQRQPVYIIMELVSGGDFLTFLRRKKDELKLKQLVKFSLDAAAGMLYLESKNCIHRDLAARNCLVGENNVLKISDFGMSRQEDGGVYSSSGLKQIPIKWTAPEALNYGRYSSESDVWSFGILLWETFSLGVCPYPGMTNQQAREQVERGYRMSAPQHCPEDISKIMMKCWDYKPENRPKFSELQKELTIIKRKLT

[5] = target: T1, Ephrin type-B receptor 1 (Homo sapiens) (UniProt P54762); assay: Selectivity interaction (SelectScreen profiling (Invitrogen)) EUB0000607a EPHB1; settings: at 2 µM
T1 sequence (whole entry): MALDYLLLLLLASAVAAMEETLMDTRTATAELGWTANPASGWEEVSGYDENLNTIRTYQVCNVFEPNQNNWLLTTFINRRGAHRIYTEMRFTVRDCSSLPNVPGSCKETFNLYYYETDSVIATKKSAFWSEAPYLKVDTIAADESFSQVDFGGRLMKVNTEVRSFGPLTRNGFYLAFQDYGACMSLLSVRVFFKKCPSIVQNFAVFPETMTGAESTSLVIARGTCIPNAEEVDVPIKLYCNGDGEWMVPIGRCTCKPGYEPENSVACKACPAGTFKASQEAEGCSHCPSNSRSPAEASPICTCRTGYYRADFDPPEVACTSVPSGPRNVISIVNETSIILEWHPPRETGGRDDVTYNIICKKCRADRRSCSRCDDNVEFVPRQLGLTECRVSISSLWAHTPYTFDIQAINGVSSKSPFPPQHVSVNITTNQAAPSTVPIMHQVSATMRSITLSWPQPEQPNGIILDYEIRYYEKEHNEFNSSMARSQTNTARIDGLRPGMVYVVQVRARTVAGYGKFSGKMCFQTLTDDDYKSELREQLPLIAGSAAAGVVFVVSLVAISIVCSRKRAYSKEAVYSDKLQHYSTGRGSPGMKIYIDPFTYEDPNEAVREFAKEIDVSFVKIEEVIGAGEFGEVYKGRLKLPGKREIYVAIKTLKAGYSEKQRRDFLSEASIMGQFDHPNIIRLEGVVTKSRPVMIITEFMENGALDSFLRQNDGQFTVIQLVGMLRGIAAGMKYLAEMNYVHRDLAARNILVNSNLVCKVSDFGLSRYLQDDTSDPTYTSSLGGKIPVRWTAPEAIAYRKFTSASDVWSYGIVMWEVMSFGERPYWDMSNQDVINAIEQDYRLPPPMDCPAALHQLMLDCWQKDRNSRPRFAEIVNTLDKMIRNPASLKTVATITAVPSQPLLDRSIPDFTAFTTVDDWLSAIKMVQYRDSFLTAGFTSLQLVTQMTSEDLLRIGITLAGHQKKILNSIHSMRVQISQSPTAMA

[6] = target: T2, Aurora kinase A (Homo sapiens) (UniProt O14965); assay: Selectivity interaction (KinomeScan (DiscoverX)) EUB0000618a STK6; settings: at 10 µM
T2 sequence (whole entry): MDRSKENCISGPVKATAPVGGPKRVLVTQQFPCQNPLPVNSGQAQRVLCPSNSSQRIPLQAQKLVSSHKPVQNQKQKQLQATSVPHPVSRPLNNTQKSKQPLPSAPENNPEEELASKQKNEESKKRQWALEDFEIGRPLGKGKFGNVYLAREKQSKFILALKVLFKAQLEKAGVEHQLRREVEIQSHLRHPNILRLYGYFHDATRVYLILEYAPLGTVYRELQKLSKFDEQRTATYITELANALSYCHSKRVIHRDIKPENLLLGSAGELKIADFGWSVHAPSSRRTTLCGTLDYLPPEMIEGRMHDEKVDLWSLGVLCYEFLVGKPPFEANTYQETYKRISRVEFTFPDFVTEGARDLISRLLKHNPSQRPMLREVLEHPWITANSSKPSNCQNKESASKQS

[7] = target: T3, Interleukin-1 receptor-associated kinase 4 (Homo sapiens) (UniProt Q9NWZ3); assay: Selectivity interaction (KinomeScan (DiscoverX)) EUB0000618a IRAK4; settings: at 10 µM
T3 sequence (whole entry): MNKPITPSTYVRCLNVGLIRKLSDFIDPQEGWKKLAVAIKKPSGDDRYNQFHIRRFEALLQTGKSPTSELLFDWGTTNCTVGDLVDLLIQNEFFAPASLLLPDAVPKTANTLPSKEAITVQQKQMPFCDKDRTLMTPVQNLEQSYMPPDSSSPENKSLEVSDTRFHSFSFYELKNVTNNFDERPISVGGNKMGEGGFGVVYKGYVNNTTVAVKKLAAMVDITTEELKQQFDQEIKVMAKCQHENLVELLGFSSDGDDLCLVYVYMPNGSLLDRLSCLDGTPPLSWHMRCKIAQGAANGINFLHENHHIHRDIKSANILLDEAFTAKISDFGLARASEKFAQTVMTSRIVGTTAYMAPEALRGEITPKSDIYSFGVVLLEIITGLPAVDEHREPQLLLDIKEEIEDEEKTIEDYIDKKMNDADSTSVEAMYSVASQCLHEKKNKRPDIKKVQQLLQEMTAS

[8] = target: Serine/threonine-protein kinase PLK3 (Homo sapiens, UniProt Q9H4B4); assay: Selectivity interaction (Kinase panel (Invitrogen)) EUB0000639a PLK3; settings: at 200 nM
Sequence of Serine/threonine-protein kinase PLK3 (Q9H4B4 whole entry, looked up): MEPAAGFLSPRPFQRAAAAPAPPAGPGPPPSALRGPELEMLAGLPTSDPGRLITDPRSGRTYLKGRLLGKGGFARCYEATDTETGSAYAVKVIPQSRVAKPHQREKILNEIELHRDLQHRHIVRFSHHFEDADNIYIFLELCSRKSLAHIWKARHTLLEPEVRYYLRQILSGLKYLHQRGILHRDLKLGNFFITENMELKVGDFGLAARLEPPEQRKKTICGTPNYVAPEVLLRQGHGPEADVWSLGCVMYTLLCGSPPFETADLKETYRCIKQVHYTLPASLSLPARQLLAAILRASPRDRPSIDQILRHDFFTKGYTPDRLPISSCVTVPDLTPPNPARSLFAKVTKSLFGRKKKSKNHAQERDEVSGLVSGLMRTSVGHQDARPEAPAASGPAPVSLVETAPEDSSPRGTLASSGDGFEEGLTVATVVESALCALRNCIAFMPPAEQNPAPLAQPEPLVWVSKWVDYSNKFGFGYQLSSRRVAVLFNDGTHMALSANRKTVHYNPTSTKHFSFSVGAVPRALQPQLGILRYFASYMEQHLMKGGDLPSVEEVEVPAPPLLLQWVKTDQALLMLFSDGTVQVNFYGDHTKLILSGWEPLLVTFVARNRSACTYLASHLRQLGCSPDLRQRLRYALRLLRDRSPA

[9] = target: T4, Tyrosine-protein kinase Tec (Homo sapiens) (UniProt P42680); assay: Selectivity interaction (ActivX KiNativ screen (kinase selectivity in THP-1 cell lysates)) EUB0000639a TEC; type: subcellular; settings: lysate, at 1 µM
T4 sequence (whole entry): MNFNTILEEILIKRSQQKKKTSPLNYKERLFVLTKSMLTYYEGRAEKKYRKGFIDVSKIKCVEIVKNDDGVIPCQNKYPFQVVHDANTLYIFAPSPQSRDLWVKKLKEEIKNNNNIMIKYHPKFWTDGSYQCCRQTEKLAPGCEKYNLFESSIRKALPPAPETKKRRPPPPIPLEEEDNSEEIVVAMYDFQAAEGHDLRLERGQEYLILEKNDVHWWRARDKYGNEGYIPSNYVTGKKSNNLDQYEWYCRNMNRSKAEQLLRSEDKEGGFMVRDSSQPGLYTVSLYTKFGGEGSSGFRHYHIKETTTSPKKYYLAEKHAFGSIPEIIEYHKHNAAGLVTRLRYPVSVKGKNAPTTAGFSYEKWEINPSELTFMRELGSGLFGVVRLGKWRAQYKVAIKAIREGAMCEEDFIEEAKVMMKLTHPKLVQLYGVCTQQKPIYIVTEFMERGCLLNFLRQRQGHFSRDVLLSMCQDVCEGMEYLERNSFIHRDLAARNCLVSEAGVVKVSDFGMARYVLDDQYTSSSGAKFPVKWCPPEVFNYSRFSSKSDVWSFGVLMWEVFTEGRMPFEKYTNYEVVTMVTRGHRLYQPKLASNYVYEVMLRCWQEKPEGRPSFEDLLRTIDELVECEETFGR

Sequence of TRAF2 and NCK-interacting protein kinase (Homo sapiens) (Q9UKE5 whole entry, looked up): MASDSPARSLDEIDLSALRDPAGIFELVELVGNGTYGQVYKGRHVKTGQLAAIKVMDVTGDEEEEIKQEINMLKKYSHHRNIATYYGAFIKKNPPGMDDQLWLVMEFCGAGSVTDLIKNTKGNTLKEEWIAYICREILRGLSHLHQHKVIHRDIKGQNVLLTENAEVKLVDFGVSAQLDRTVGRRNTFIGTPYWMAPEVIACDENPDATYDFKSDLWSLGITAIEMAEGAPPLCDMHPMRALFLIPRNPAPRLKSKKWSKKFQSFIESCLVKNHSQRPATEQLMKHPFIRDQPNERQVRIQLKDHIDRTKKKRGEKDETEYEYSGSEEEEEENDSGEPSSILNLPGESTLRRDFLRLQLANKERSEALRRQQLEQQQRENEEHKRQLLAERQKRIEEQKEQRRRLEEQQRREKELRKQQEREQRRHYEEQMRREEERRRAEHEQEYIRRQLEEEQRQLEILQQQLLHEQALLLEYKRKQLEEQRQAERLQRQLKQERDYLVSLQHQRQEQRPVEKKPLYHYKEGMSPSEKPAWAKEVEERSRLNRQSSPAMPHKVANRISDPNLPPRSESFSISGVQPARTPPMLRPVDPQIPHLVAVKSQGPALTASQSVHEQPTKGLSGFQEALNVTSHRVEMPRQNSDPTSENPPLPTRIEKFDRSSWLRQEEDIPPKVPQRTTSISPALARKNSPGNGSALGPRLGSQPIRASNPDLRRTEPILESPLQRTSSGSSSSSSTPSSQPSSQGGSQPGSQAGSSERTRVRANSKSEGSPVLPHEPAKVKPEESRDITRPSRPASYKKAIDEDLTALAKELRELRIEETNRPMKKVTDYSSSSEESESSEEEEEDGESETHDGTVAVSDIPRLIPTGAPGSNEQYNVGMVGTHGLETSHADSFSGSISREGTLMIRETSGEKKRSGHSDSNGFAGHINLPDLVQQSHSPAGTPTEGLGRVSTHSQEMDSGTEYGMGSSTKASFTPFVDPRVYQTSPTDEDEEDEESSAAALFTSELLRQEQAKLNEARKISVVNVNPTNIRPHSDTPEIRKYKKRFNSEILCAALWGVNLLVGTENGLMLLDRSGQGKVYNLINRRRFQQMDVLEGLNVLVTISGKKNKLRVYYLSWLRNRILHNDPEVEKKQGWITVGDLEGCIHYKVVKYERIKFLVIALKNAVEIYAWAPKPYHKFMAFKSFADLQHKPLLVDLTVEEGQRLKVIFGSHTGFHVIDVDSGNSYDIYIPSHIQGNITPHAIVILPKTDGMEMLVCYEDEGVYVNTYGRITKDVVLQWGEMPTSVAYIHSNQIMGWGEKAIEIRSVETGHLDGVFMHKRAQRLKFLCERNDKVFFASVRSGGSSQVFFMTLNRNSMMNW

## COc1cc(N(C)c2ccnc3ccc(C(F)(F)F)cc23)cc(OC)c1OC
[1]
  % binding: 69%

## COCC(=O)NC/C=C/c1ccc2ncnc(Nc3ccc(Oc4ccc(C)nc4)c(C)c3)c2c1 [CP-724714]
Misshapen-like kinase 1
  % of control: 77%

## Cc1cc(F)c(C(=O)Nc2cccc(-c3nncn3C(C)C)n2)cc1-n1cnc(C2CC2)c1
[2]
  % of control: 78%

## Cc1cc([C@@H](C)Nc2ccccc2C(=O)O)c2nc(N3CCOCC3)cc(=O)n2c1 [AZD-6482]
[3]
  % of control: 100%

## CCc1cc(Nc2nccc(-c3c(-c4ccc(OC)c(C(=O)Nc5c(F)cccc5F)c4)nc4ccccn34)n2)c(OC)cc1N1CCC(N2CCN(S(C)(=O)=O)CC2)CC1
[4]
  % of inhibition: 93%

## CNC(=O)Nc1ccc(-c2nc(N3CC4CCC(C3)O4)c3cnn(C4CCC5(CC4)OCCO5)c3n2)cc1
[5]
  % of inhibition: 2%

## O[C@H]1CC[C@H](Nc2ncc3nc(Nc4c(F)cc(F)cc4F)n([C@H]4CCOC4)c3n2)CC1
[6]
  % of control: 91%
[7]
  % of control: 94%

## CC[C@@H]1[C@H](F)C(=O)N[C@@H]1COc1nccc2cc(C(N)=O)c(OC)cc12 [ZIMLOVISERTIB]
[8]
  % of inhibition: 5.09%
[9]
  % of inhibition: -60.5%
